How the values were obtained:
Type in all cases: biochemical
[1] = molecular target: T1, JAK1 (Homo sapiens, UniProt P23458); assay: Method 1 (JAK1): mobility shift assay on Caliper LC3000 reader; conditions: 3.5 nM JAK1 enzyme, 5 mM ATP, 90 minutes, room temperature; read-out: IC50 (JAK inhibitory activity, Method 1 (JAK1))
T1 construct: catalytic domain (amino acids 866-1154), GST-tagged, expressed in insect cells; GST; purchased Invitrogen; host or cells: insect cells
Text: (§1) Janus kinase 1 (JAK1) activity may be determined by measuring the kinase's ability to phosphorylate a tyrosine residue within a peptide substrate using a mobility shift assay on a Caliper LC3000 reader (Caliper, Hopkinton, Mass.), which measures fluorescence of the phosphorylated and unphosphorylated substrate and calculates a ratiometric value to determine percent turnover.
To measure JAK1 kinase activity, a commercially available purified enzyme may be used. The enzyme may be a recombinant human, catalytic domain (amino acids 866-1154), GST-tagged, expressed in insect cells (Invitrogen, Carlsbad, Calif.). After incubation of the kinase with a FITC labeled JAK1 substrate, adenosine triphosphate (ATP), and MgCl2 for 90 minutes at room temperature, the kinase reaction may be stopped by the addition of 36 mM ethylenediaminetetraacetic acid (EDTA). The reaction may be performed in 384 well microtitre plates and the reaction products may be detected using the Caliper LC3000 Reader.

[2] = molecular target: T2, human JAK2 (Homo sapiens, UniProt O60674); assay: Method 2 (JAK2): mobility shift assay on Caliper LC3000 reader, 5 mM ATP; parameters: human JAK2 (amino acids 831-1132, PLAZA database pAZB0359) expressed in insect cells; GST (N); made in house; host or cells: insect cells; conditions: 0.3 nM JAK2 enzyme, 90 minutes, read-out: IC50 (JAK inhibitory activity, Method 2 (JAK2))
Text: as §1, with “Alternatively, Janus” for “Janus”, “2 (JAK2)” for “1 (JAK1)”
(§2) To measure JAK2 kinase activity, an in-house purified enzyme may be used. The enzyme may be a N-terminal GST-tagged, recombinant, human JAK2 (amino acids 831-1132, PLAZA database pAZB0359) expressed in insect cells. After incubation of the kinase with a FAM labeled SRCtide substrate, adenosine triphosphate (ATP), and MgCl2 for 90 minutes at room temperature, the kinase reaction may be stopped by the addition of 36 mM ethylenediaminetetraacetic acid (EDTA). The reaction may be performed in 384 well microtitre plates and the reaction products may be detected using the Caliper LC3000 Reader.
Target sequence in this assay (O60674 831-1132): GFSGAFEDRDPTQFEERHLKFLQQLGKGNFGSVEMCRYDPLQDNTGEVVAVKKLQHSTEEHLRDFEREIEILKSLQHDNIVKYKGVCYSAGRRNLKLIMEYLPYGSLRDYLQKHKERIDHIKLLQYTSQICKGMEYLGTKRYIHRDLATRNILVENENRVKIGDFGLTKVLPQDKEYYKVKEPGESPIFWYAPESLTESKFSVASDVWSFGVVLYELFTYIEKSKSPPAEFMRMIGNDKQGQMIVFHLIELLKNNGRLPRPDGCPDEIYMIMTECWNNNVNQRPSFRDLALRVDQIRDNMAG

[3] = molecular target: T2, human JAK2; assay: Method 3 (JAK2): mobility shift assay on Caliper LC3000 reader, 15 μM ATP; parameters: human JAK2 (amino acids 831-1132, PLAZA database pAZB0359) expressed in insect cells; GST (N); made in house; host or cells: insect cells; conditions: 0.5 nM JAK2 enzyme, 90 minutes, read-out: IC50 (JAK inhibitory activity, Method 3 (JAK2))
Method: as §1, with “2 (JAK2)” for “1 (JAK1)”, “was” for “may be”
as §2, with “enzyme was” for “enzyme may be”, “enzyme was” for “enzyme may be a”, “reaction was” for “reaction may be”, “products were” for “products may be”
Target sequence in this assay (O60674 831-1132): as above

[4] = molecular target: T2, human JAK2; assay: Method 1 (JAK2): Amplified Luminescent Proximity Assay (Alphascreen); parameters: His6 (C); purchased Upstate Biotechnology; host or cells: baculovirus in Sf21 cells; conditions: 150 pM JAK2 enzyme, 5 mM ATP, 60 minutes, room temperature, read-out: IC50 (JAK inhibitory activity, Method 1 (JAK2))
Text: JAK2 kinase activity may be determined by measuring the kinase's ability to phosphorylate synthetic tyrosine residues within a generic polypeptide substrate using an Amplified Luminescent Proximity Assay (Alphascreen) technology (PerkinElmer, 549 Albany Street, Boston, Mass.).
To measure JAK2 kinase activity, a commercially available purified enzyme may be used. The enzyme may be a C-terminal His6-tagged, recombinant, human JAK2, amino acids 808-end, (Genbank Accession number NM 004972) expressed by baculovirus in Sf21 cells (Upstate Biotechnology MA). After incubation of the kinase with a biotinylated substrate and adenosine triphosphate (ATP) for 60 minutes at room temperature, the kinase reaction may be stopped by the addition of 30 mM ethylenediaminetetraacetic acid (EDTA). The reaction may be performed in 384 well microtitre plates and the reaction products may be detected with the addition of streptavidin coated Donor Beads and phosphotyrosine-specific antibodies coated Acceptor Beads using the EnVision Multilabel Plate Reader after an overnight incubation at room temperature.
Target sequence in this assay (O60674 808-1132 limits assumed): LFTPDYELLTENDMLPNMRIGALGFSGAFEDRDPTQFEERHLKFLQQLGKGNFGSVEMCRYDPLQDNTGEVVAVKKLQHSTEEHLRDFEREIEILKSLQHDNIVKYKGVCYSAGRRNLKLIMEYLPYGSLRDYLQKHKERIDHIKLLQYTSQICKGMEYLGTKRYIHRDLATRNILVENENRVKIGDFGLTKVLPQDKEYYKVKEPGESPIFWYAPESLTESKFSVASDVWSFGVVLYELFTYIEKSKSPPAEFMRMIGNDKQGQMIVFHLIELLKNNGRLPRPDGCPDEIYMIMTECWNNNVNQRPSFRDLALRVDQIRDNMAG

T1 sequence (P23458 866-1154): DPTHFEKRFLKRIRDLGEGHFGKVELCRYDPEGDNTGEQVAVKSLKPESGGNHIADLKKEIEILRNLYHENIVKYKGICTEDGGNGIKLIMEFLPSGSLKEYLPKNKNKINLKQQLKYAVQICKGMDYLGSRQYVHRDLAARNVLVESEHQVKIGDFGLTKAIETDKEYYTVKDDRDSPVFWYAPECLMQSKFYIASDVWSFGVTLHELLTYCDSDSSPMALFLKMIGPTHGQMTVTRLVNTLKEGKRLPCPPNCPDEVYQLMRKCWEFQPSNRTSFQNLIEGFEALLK

| Compound | IC50 [1] [nM] | IC50 [2] [nM] | IC50 [3] [nM] | IC50 [4] [nM] |
| --- | --- | --- | --- | --- |
| [2H]C1([2H])OC([2H])([2H])C([2H])([2H])N(c2nc(Nc3cn(C)cn3)nc(NC(C)c3ncc(F)cc3F)n2)C1([2H])[2H] (single isomer, unassigned) [Example 11a, N-[1-(3,5-Difluoropyridin-2-yl)ethyl]-N′-(1-methyl-1H-imidazol-4-yl)-6-(^2H8)morpholin-4-yl-1,3,5-triazine-2,4-diamine] | 780 | 986 |  |  |
| [2H]C1([2H])OC([2H])([2H])C([2H])([2H])N(c2nc(Nc3cn(C)cn3)nc(NC(C)c3ncc(F)cc3F)n2)C1([2H])[2H] (single isomer, unassigned) [Example 11b, N-[1-(3,5-Difluoropyridin-2-yl)ethyl]-N′-(1-methyl-1H-imidazol-4-yl)-6-(^2H8)morpholin-4-yl-1,3,5-triazine-2,4-diamine] | 15 | 21 |  |  |
| [2H]C([2H])([2H])n1cnc(Nc2nc(NC(C)c3ncc(F)cc3F)nc(N3CCOCC3)n2)c1 (single isomer, unassigned) [Example 12a, N-[1-(3,5-Difluoropyridin-2-yl)ethyl]-N′-[1-(^2H3)methyl-1H-imidazol-4-yl]-6-morpholin-4-yl-1,3,5-triazine-2,4-diamine] |  |  | 138 |  |
| [2H]C([2H])([2H])n1cnc(Nc2nc(NC(C)c3ncc(F)cc3F)nc(N3CCOCC3)n2)c1 (single isomer, unassigned) [Example 12b, N-[1-(3,5-Difluoropyridin-2-yl)ethyl]-N′-[1-(^2H3)methyl-1H-imidazol-4-yl]-6-morpholin-4-yl-1,3,5-triazine-2,4-diamine] |  |  | < 3 |  |
| [2H]C([2H])([2H])n1cnc(Nc2nc(NC(C)c3ncc(F)cc3F)nc(N3C([2H])([2H])C([2H])([2H])OC([2H])([2H])C3([2H])[2H])n2)c1 (single isomer, unassigned) [Example 13a, N-[1-(3,5-Difluoropyridin-2-yl)ethyl]-N′-[1-(^2H3)methyl-1H-imidazol-4-yl]-6-(^2H8)morpholin-4-yl-1,3,5-triazine-2,4-diamine] |  |  | 180 |  |
| [2H]C([2H])([2H])n1cnc(Nc2nc(NC(C)c3ncc(F)cc3F)nc(N3C([2H])([2H])C([2H])([2H])OC([2H])([2H])C3([2H])[2H])n2)c1 (single isomer, unassigned) [Example 13b, N-[1-(3,5-Difluoropyridin-2-yl)ethyl]-N′-[1-(^2H3)methyl-1H-imidazol-4-yl]-6-(^2H8)morpholin-4-yl-1,3,5-triazine-2,4-diamine] |  |  | < 3 |  |
| Cn1cnc(Nc2nc(NC(CNC(=O)OC(C)(C)C)c3ccc(F)cc3)nc(N3CCOCC3)n2)c1 (single isomer, unassigned) [Example 24a, tert-Butyl [2-(4-fluorophenyl)-2-({4-[(1-methyl-1H-imidazol-4-yl)amino]-6-morpholin-4-yl-1,3,5-triazin-2-yl}amino)ethyl]carbamate] | 83 | 73 |  |  |
| Cn1cnc(Nc2nc(NC(CNC(=O)OC(C)(C)C)c3ccc(F)cc3)nc(N3CCOCC3)n2)c1 (single isomer, unassigned) [Example 24b, tert-Butyl [2-(4-fluorophenyl)-2-({4-[(1-methyl-1H-imidazol-4-yl)amino]-6-morpholin-4-yl-1,3,5-triazin-2-yl}amino)ethyl]carbamate] | 1020 | 1710 |  |  |
| Cn1cnc(Nc2nc(NC(c3ccc(F)cc3)c3nccn3C)nc(N3CCOCC3)n2)c1 (single isomer, unassigned) [Example 25b, N-[(4-Fluorophenyl)(1-methyl-1H-imidazol-2-yl)methyl]-N′-(1-methyl-1H-imidazol-4-yl)-6-morpholin-4-yl-1,3,5-triazine-2,4-diamine] | 30000 | > 30000 |  |  |
| Cn1cnc(Nc2nc(NC(c3ccc(F)cc3)C3CCCC3)nc(N3CCOCC3)n2)c1 (stereo not shown) [Example 27, N-[Cyclopentyl(4-fluorophenyl)methyl]-N′-(1-methyl-1H-imidazol-4-yl)-6-morpholin-4-yl-1,3,5-triazine-2,4-diamine] | 1980 | 966 |  |  |
| C[C@H](Nc1nc(Nc2cn(C)cn2)nc(N2CCOCC2)n1)c1ccc(Cl)cc1 [Example 29, N-[(1S)-1-(4-Chlorophenyl)ethyl]-N′-(1-methyl-1H-imidazol-4-yl)-6-morpholin-4-yl-1,3,5-triazine-2,4-diamine] | 510 |  |  | 4 |
| C[C@H](Nc1nc(Nc2cn(C)cn2)nc(N2CCOCC2)n1)c1ccc(F)cc1 [Example 30, N-[(1S)-1-(4-fluorophenyl)ethyl]-N′-(1-methyl-1H-imidazol-4-yl)-6-morpholin-4-yl-1,3,5-triazine-2,4-diamine] | 65 |  |  | < 3 |
| CCn1cnc(Nc2nc(N[C@@H](C)c3ncc(F)cc3F)nc(N3CCOCC3)n2)c1 [Example 31, N-[(1S)-1-(3,5-difluoropyridin-2-yl)ethyl]-N′-(1-ethyl-1H-imidazol-4-yl)-6-morpholin-4-yl-1,3,5-triazine-2,4-diamine] |  |  |  | 234 |
| C[C@H](Nc1nc(Nc2cn(C3CC3)cn2)nc(N2CCOCC2)n1)c1ncc(F)cn1 [Example 32, N-(1-Cyclopropyl-1H-imidazol-4-yl)-N′-[(1S)-1-(5-fluoropyrimidin-2-yl)ethyl]-6-morpholin-4-yl-1,3,5-triazine-2,4-diamine] |  |  |  | 393 |
| C[C@H](Nc1nc(Nc2cn(CCc3ccsc3)cn2)nc(N2CCOCC2)n1)c1ncc(F)cn1 [Example 33, N-[(1S)-1-(5-Fluoropyrimidin-2-yl)ethyl]-6-morpholin-4-yl-N′-{1-[2-(3 thienyl)ethyl]-1H-imidazol-4-yl}-1,3,5-triazine-2,4-diamine] |  |  |  | 998 |
| C[C@H](Nc1nc(Nc2cn(CC(F)(F)F)cn2)nc(N2CCOCC2)n1)c1ncc(F)cn1 [Example 34, N-[(1S)-1-(5-fluoropyrimidin-2-yl)ethyl]-6-morpholin-4-yl-N′-[1-(2,2,2-trifluoroethyl)-1H-imidazol-4-yl]-1,3,5-triazine-2,4-diamine] |  |  |  | 8320 |
| CCn1cnc(Nc2nc(N[C@@H](C)c3ncc(F)cn3)nc(N3CCOCC3)n2)c1 [Example 35, N-(1-Ethyl-1H-imidazol-4-yl)-N′-[(1S)-1-(5-fluoropyrimidin-2-yl)ethyl]-6-morpholin-4-yl-1,3,5-triazine-2,4-diamine] |  |  |  | 23 |
